Reference: US20230111914A1, “SYNTHETIC TRITERPENOIDS WITH NITROGEN-BASED SUBSTITUENTS AT C-17 AND METHODS OF USE THEREOF” (REATA PHARMACEUTICALS, INC., priority 2019, published 2023)
Values joined by “and” are separate entries in the source; they are usually repeats but may differ in a detail not shown here. Identical values can stand only once. Like-named read-outs stand apart in the source and are kept apart here. Marks after values point to notes of the source that are not given here.

Legend:
[1] = system: IFNγ-induced NO production in RAW 264.7 cells; assay: Nitric oxide suppression assay (IFNγ-induced NO production, Griess nitrite readout); assay type: cell-based, mouse; conditions: for IC50: 2 h pretreatment, 20 ng/mL interferon gamma 24 h, average of trials per footnote, read-out: NO IC50
[2] = system: AREc32 reporter cell line (luciferase reporter under eight copies of the rat GSTA2 ARE sequence); assay: AREc32 luciferase reporter activation; assay type: cell-based, human; conditions: for EC (2-fold): Homo sapiens, Arec32, concentration that increases the luminescence signal 2-fold above vehicle, 19 h treatment, read-out: AREc32 EC2X (Mean ± SD)
[3] = Mus musculus, RAW264.7, RAW 264.7 cells

SMILES | NO IC50 Rel. to RTA 402 [1] | IC50 [1, 3] | AREc32 EC2X Relative to RTA 402 (Mean ± SD) [2] | EC (2-fold) [2] | IC50 ([1]; RAW 264.7 cells) | times more active (NO IC50) than 63170 relative to RTA 402 [1] | times more active (NO IC50) than 63172 relative to RTA 402 [1] | times more active (NO IC50) than 63183 relative to RTA 402 [1]
CC1(C)CC[C@]2(CNC(=O)OC(C)(C)C)CC[C@]3(C)[C@H](C(=O)C=C4[C@@]5(C)C=C(C#N)C(=O)C(C)(C)[C@@H]5CC[C@]43C)[C@@H]2C1 [CC1, reference compound] | 2.06 ± 0.56^e fold | 5.04 ± 2.62 nM | 2.1 ± 0.00^a fold | 0.0211 ± 0.00475 µM | – | – | – | –
CC1(C)CC[C@]2(CN)CC[C@]3(C)[C@H](C(=O)C=C4[C@@]5(C)C=C(C#N)C(=O)C(C)(C)[C@@H]5CC[C@]43C)[C@@H]2C1 [CC2, reference compound] | 1.55 fold and 1.55 ± 0.30^e fold | 3.15 nM | 1.6 ± 0.17^g fold | 0.0161 ± 0.00081 µM | – | – | – | –
CC1(C)CC[C@]2(N)CC[C@]3(C)[C@H](C(=O)C=C4[C@@]5(C)C=C(C#N)C(=O)C(C)(C)[C@@H]5CC[C@]43C)[C@@H]2C1 [CC4, reference compound] | 2.41 fold and 2.41 ± 0.49^b fold | 3.75 nM | – | – | – | – | – | –
CC(=O)N[C@]12CCC(C)(C)C[C@H]1[C@H]1C(=O)C=C3[C@@]4(C)C=C(C#N)C(=O)C(C)(C)[C@@H]4CC[C@@]3(C)[C@]1(C)CC2 [Compound 63170, reference compound] | 4.95 fold | 8.45 nM | – | – | – | – | – | –
CNC(=O)N[C@]12CCC(C)(C)C[C@H]1[C@H]1C(=O)C=C3[C@@]4(C)C=C(C#N)C(=O)C(C)(C)[C@@H]4CC[C@@]3(C)[C@]1(C)CC2 [Compound 63172, reference compound] | 7.73 fold | 21.6 nM | – | – | – | – | – | –
C=CC(=O)N[C@]12CCC(C)(C)C[C@H]1[C@H]1C(=O)C=C3[C@@]4(C)C=C(C#N)C(=O)C(C)(C)[C@@H]4CC[C@@]3(C)[C@]1(C)CC2 [Compound 63183, reference compound] | 1.35 fold | 4 nM | – | – | 2.39 nM | – | – | –
CCC(=O)N[C@]12CCC(C)(C)C[C@H]1[C@H]1C(=O)C=C3[C@@]4(C)C=C(C#N)C(=O)C(C)(C)[C@@H]4CC[C@@]3(C)[C@]1(C)CC2 [Compound 63189, reference compound] | 4.06 fold | 7.2 nM | – | – | – | – | – | –
CC1(C)CC[C@]2(c3nn[nH]n3)CC[C@]3(C)[C@H](C(=O)C=C4[C@@]5(C)C=C(C#N)C(=O)C(C)(C)[C@@H]5CC[C@]43C)[C@@H]2C1 [Compound 63229, reference compound] | >75.85 fold | > 200 nM | – | – | – | – | – | –
CC1(C)CC[C@]2(NC(=O)C3CC3)CC[C@]3(C)[C@H](C(=O)C=C4[C@@]5(C)C=C(C#N)C(=O)C(C)(C)[C@@H]5CC[C@]43C)[C@@H]2C1 [Compound 63236, reference compound] | 57.25 fold | – | – | – | 143 nM | – | – | –
C[C@@H]1C(=O)C(C#N)=C[C@]2(C)C3=CC(=O)[C@@H]4[C@@H]5CC(C)(C)CC[C@]5(NC(=O)C5CC5)CC[C@@]4(C)[C@]3(C)CC[C@@H]12 [Compound 63866, reference compound] | 1.16 fold | 1.43 nM | – | – | – | – | – | –
CC(=O)NC[C@]12CCC(C)(C)C[C@H]1[C@H]1C(=O)C=C3[C@@]4(C)C=C(C#N)C(=O)C(C)(C)[C@@H]4CC[C@@]3(C)[C@]1(C)CC2 [Compound T3] | 0.17 fold and 0.17 ± 0.04^e fold | 0.44 nM | 0.2 ± 0.08^a fold | 0.0024 ± 0.00044 µM | – | more than 29 times | – | –
CN(C[C@]12CCC(C)(C)C[C@H]1[C@H]1C(=O)C=C3[C@@]4(C)C=C(C#N)C(=O)C(C)(C)[C@@H]4CC[C@@]3(C)[C@]1(C)CC2)C(=O)OC(C)(C)C [Compound T5] | 6.04 ± 2.02^d fold | 14.2 ± 6.51 nM | 3.9 ± 0.36^a fold | 0.0425 ± 0.00947 µM | – | – | – | –
CNC[C@]12CCC(C)(C)C[C@H]1[C@H]1C(=O)C=C3[C@@]4(C)C=C(C#N)C(=O)C(C)(C)[C@@H]4CC[C@@]3(C)[C@]1(C)CC2 [Compound T6] | 1.60 ± 0.23^e fold | 3.35 ± 1.62 nM | 1.2 ± 0.35^a fold | 0.0169 ± 3e-05 µM | – | – | – | –
CC(=O)N(C)C[C@]12CCC(C)(C)C[C@H]1[C@H]1C(=O)C=C3[C@@]4(C)C=C(C#N)C(=O)C(C)(C)[C@@H]4CC[C@@]3(C)[C@]1(C)CC2 [Compound T7] | 0.49 ± 0.14^e fold | 0.84 ± 0.37 nM | 0.5 ± 0.14^a fold | 0.0068 ± 3e-05 µM | – | – | – | –
CNC(=O)NC[C@]12CCC(C)(C)C[C@H]1[C@H]1C(=O)C=C3[C@@]4(C)C=C(C#N)C(=O)C(C)(C)[C@@H]4CC[C@@]3(C)[C@]1(C)CC2 [Compound T8] | 0.21 fold and 0.21 ± 0.05^d fold | 0.46 nM | 0.2 ± 0.06^a fold | 0.0028 ± 4e-05 µM | – | – | roughly 37 times | –
CNC(=O)N(C)C[C@]12CCC(C)(C)C[C@H]1[C@H]1C(=O)C=C3[C@@]4(C)C=C(C#N)C(=O)C(C)(C)[C@@H]4CC[C@@]3(C)[C@]1(C)CC2 [Compound T9] | 0.38 ± 0.15^e fold | 0.7 ± 0.18 nM | 0.5 ± 0.20^a fold | 0.0072 ± 0.00077 µM | – | – | – | –

SMILES | NO IC50 Rel. to RTA 402 [1] | IC50 [1, 3] | AREc32 EC2X Relative to RTA 402 (Mean ± SD) [2] | EC (2-fold) [2] | IC50 ([1]; RAW 264.7 cells) | times more active (NO IC50) than 63170 relative to RTA 402 [1] | times more active (NO IC50) than 63172 relative to RTA 402 [1] | times more active (NO IC50) than 63183 relative to RTA 402 [1]
CC1(C)CC[C@]2(CNCCO)CC[C@]3(C)[C@H](C(=O)C=C4[C@@]5(C)C=C(C#N)C(=O)C(C)(C)[C@@H]5CC[C@]43C)[C@@H]2C1 [Compound T12] | 4.07 ± 1.08^e fold | 7.47 ± 0.85 nM | 1.7^e fold | 0.0218 µM | – | – | – | –
CC1(C)CC[C@]2(CN3CCOC3=O)CC[C@]3(C)[C@H](C(=O)C=C4[C@@]5(C)C=C(C#N)C(=O)C(C)(C)[C@@H]5CC[C@]43C)[C@@H]2C1 [Compound T13] | 0.65 ± 0.21^e fold | 1.74 ± 0.55 nM | 0.5^e fold | 0.00512 µM | – | – | – | –
CC1(C)CC[C@]2(CN3CCNC3=O)CC[C@]3(C)[C@H](C(=O)C=C4[C@@]5(C)C=C(C#N)C(=O)C(C)(C)[C@@H]5CC[C@]43C)[C@@H]2C1 [Compound T14] | 0.51 ± 0.09^e fold | 0.89 ± 0.08 nM | 0.4^e fold | 0.00437 µM | – | – | – | –
CN1CCN(C[C@]23CCC(C)(C)C[C@H]2[C@H]2C(=O)C=C4[C@@]5(C)C=C(C#N)C(=O)C(C)(C)[C@@H]5CC[C@@]4(C)[C@]2(C)CC3)C1=O [Compound T15] | 0.64 ± 0.26^d fold | 1.18 ± 0.5 nM | 0.5^e fold | 0.00607 µM | – | – | – | –
C=CC(=O)NC[C@]12CCC(C)(C)C[C@H]1[C@H]1C(=O)C=C3[C@@]4(C)C=C(C#N)C(=O)C(C)(C)[C@@H]4CC[C@@]3(C)[C@]1(C)CC2 [Compound T16] | 0.21 fold and 0.21 ± 0.05^d fold | 0.37 nM | 0.2 ± 0.05^f fold | 0.002 ± 0.00018 µM | – | – | – | more than 6 times
CC1(C)CC[C@]2(N3CCNC3=O)CC[C@]3(C)[C@H](C(=O)C=C4[C@@]5(C)C=C(C#N)C(=O)C(C)(C)[C@@H]5CC[C@]43C)[C@@H]2C1 [Compound T30] | 3.68 ± 0.33^d fold | 15 ± 2.92 nM | – | – | – | – | – | –
CC1(C)CC[C@]2(n3cc[nH]c3=O)CC[C@]3(C)[C@H](C(=O)C=C4[C@@]5(C)C=C(C#N)C(=O)C(C)(C)[C@@H]5CC[C@]43C)[C@@H]2C1 [Compound T45] | 4.02 ± 0.61^d fold | 16.4 ± 2.94 nM | – | – | – | – | – | –
CC1(C)CC[C@]2(CN3C(=O)CCN3C(=O)OC(C)(C)C)CC[C@]3(C)[C@H](C(=O)C=C4[C@@]5(C)C=C(C#N)C(=O)C(C)(C)[C@@H]5CC[C@]43C)[C@@H]2C1 [Compound T50] | 1.17 ± 0.18^d fold | 4.82 ± 1.3 nM | – | – | – | – | – | –
CN1CC(=O)N([C@]23CCC(C)(C)C[C@H]2[C@H]2C(=O)C=C4[C@@]5(C)C=C(C#N)C(=O)C(C)(C)[C@@H]5CC[C@@]4(C)[C@]2(C)CC3)CC1=O [Compound T54] | 16.18 ± 3.50^e fold | 64.6 ± 19.7 nM | – | – | – | – | – | –
CC1(C)CC[C@]2(N(NC(=O)OC(C)(C)C)C(=O)OC(C)(C)C)CC[C@]3(C)[C@H](C(=O)C=C4[C@@]5(C)C=C(C#N)C(=O)C(C)(C)[C@@H]5CC[C@]43C)[C@@H]2C1 [Compound T55] | 17.42 ± 0.43^e fold | 68.9 ± 10 nM | – | – | – | – | – | –
CC1(C)CC[C@]2(n3nccc3C(F)(F)F)CC[C@]3(C)[C@H](C(=O)C=C4[C@@]5(C)C=C(C#N)C(=O)C(C)(C)[C@@H]5CC[C@]43C)[C@@H]2C1 [Compound T59] | 12.08 ± 2.93^d fold | 49.5 ± 13.8 nM | – | – | – | – | – | –
CC1(C)CC[C@]2(n3ccc(C(F)(F)F)n3)CC[C@]3(C)[C@H](C(=O)C=C4[C@@]5(C)C=C(C#N)C(=O)C(C)(C)[C@@H]5CC[C@]43C)[C@@H]2C1 [Compound T60] | 11.32 ± 1.49^e fold | 45.1 ± 10.6 nM | – | – | – | – | – | –
CN1CCN([C@]23CCC(C)(C)C[C@H]2[C@H]2C(=O)C=C4[C@@]5(C)C=C(C#N)C(=O)C(C)(C)[C@@H]5CC[C@@]4(C)[C@]2(C)CC3)CC1=O [Compound T61] | 3.18 ± 0.67^d fold | 13.2 ± 3.78 nM | – | – | – | – | – | –
CC1(C)CC[C@]2(CN3CC(O)C3)CC[C@]3(C)C(O)(C(=O)C=C4[C@@]5(C)C=C(C#N)C(=O)C(C)(C)[C@@H]5CC[C@]43C)[C@@H]2C1 (some centres unmarked) [Compound T64] | 1.64 ± 0.16^e fold | 3.82 ± 1.76 nM | – | – | – | – | – | –
CC1(C)CC[C@]2(NC(=O)C3CC3)CC[C@]3(C)[C@H](C(=O)C=C4[C@@]5(C)C=C(C#N)C(=O)C(C)(C)[C@@H]5CC[C@]43C)[C@@H]2C1 [Compound T68] | 6.51 ± 1.38^i fold | – | – | – | 11.4 ± 5.17 nM | – | – | –
